In data set [1] the target is CDK1/cyclin B. The data set can be described thus: CDK1/cyclin B kinase assay (histone H1, 15 μM ATP). It counts as biochemical, starfish (Marthasterias glacialis). The conditions noted are these: for IC50: 15 μM ATP, Table 1. Here is the method: (§1) Blank values were subtracted and activities calculated as pmoles of phosphate incorporated for a 10 min. incubation. […] Controls were performed with appropriate dilutions of dimethylsulfoxide. In a few cases phosphorylation of the substrate was assessed by autoradiography after SDS-PAGE.
CDK1/cyclin B was extracted in homogenisation buffer from M phase starfish (Marthasterias glacialis) oocytes and purified by affinity chromatography on p9^CKShs1-sepharose beads, from which it was eluted by free p9^CKShs1. […] ATP (3,000 Ci/mmol; 1 mCi/ml) in a final volume of 30 μl. After 10 min. incubation at 30° C., 25 μl aliquots of supernatant were spotted onto P81 phosphocellulose papers and treated as described above.
(§2) Kinases were assayed as above described in the presence of increasing concentrations of aloisines.

Data set [2] addresses CDK5/p25 (Homo sapiens, UniProt Q00535). Kind of data set: CDK5/p25 kinase assay (histone H1, 15 μM ATP). The format is biochemical, mammalian. The conditions noted are these: Table 1. On the procedure: as §1
CDK5/p25 was reconstituted by mixing equal amounts of recombinant mammalian CDK5 and p25 expressed in E. coli as GST (Glutathione-S-transferase) fusion proteins and purified by affinity chromatography on glutathione-agarose (p25 is a truncated version of p35, the 35 kDa CDK5 activator). Its activity was assayed in buffer C as described for CDK1/cyclin B.
as §2

Data set [3] deals with GSK-3α/β. Kind of data set: GSK-3 kinase assay (GS-1 peptide, 15 μM ATP). The format is biochemical, porcine. On the procedure: as §1
GSK-3α/β was either purified from porcine brain or expressed in and purified from insect Sf9 cells. […] ATP (3,000 Ci/mmol; 1 mCi/ml) in a final volume of 30 μl. After 30 min. incubation at 30° C., 25 μl aliquots of supernatant were spotted onto 2.5×3 cm pieces of Whatman P81 phosphocellulose paper, and, 20 sec. later, the filters were washed five times (for at least 5 min. each time) in a solution of 10 ml phosphoric acid/liter of water. The wet filters were counted in the presence of 1 ml ACS (Amersham) scintillation fluid.
as §2

Data set [4] addresses Insulin receptor tyrosine kinase (Homo sapiens, UniProt P06213). The note with it: read-out: IC50 Insulin receptor tyrosine kinase; 15 μM ATP.
Text: (§5) Other kinases were expressed, purified and assayed as described previously (9), (10).
Data set [5] has as its target T1, erk1 (Homo sapiens, UniProt P27361).
T1 construct: made in house
Kind of data set: Kinase selectivity panel. It counts as biochemical. The conditions noted are these: 15 μM ATP.
Text: as §5

Data set [6] concerns the target c-Jun N-terminal kinase. The data set can be described thus: Kinase selectivity panel. It counts as biochemical. The note with it: 15 μM ATP.
Text: as §5
Data set [7] addresses MAPKK. The data set can be described thus: Kinase selectivity panel. It counts as biochemical. The note with it: 15 μM ATP.
Text: as §5
For data set [8], the target named is T2, protein kinase C η (Homo sapiens, UniProt P24723).
T2 construct: made in house
The data set can be described thus: Kinase selectivity panel. The format is biochemical. The note with it: 15 μM ATP.
Text: as §5

For data set [9], the target named is T3, erk2 (Homo sapiens, UniProt P28482).
T3 construct: made in house
The data set can be described thus: Kinase selectivity panel. The format is biochemical. The note with it: 15 μM ATP.
Text: as §5

For data set [10], the system named is NT2 cells. The data set can be described thus: Exponential cell growth of NT2 cells. It counts as cell-based, human. The conditions noted are these: figure legend FIGS. 4A to 4E. Here is the method: (§3) Clonal human NT2 teraterocarcinoma cells were obtained from Stratagene (La Jolla, Calif.) and grown in Dulbecco's Modified Eagle Medium: Nutrient Mixture F-12 with 2 mM L-Glutamine (BIO […]) supplemented with 5% FCS and containing penicillin (20 UI/ml) and streptomycin (20 μg/ml) at 37° C., in a humidified atmosphere containing 5% CO2 in air.
(§4) Exponentially growing cells were incubated for 24 h with aloisine A (stock solution dissolved in dimethylsulfoxide). Nocodazole treatment of cells was performed at a concentration of 0.04 μg nocodazole/ml of medium for 24 h. Following the nocodazole treatment, cells were washed twice with fresh medium and cultured with or without aloisine A for 24 h. To perform serum deprivation, cells were maintained in serum-free medium for 40 h. Following serum deprivation, cells were washed twice and cultured in fresh serum-containing medium with or without aloisine A for 40 h.
The formazan products were dissolved in DMSO and quantified by measurement of the absorbance at 562 nm.

The target in data set [11] is Casein kinase 2. Kind of data set: Kinase selectivity panel. It counts as biochemical. The note with it: 15 μM ATP.
Text: as §5
Data set [12] has as its target T4, CDK4/cyclin D1 (Homo sapiens, UniProt P11802).
T4 construct: made in house
Kind of data set: Kinase selectivity panel. The note with it: 15 μM ATP. The format is biochemical.
Text: as §5

For data set [13], the target named is Casein kinase 1. The data set can be described thus: Kinase selectivity panel. The conditions noted are these: 15 μM ATP. It counts as biochemical.
Text: as §5
The test system of data set [14] is NT2 cells. The data set can be described thus: Cell cycle analysis by flow cytometry. The format is cell-based, human. On the procedure:
as §3, §4
Cells were trypsinised, collected by centrifugation and fixed in cold 70% ethanol for at least 4 h. Fixed cells were washed in PBS, incubated with 10 μg RNAse A/ml and stained with 25 μg propidium iodide/ml for 1 h at 37° C. The stained cells were then analysed for cell cycle distribution on a FACSort flow cytometer (Becton Dickinson). Cell cycle analyses were performed multiCYCLE (18).
The effect of aloisine A on the cell cycle distribution was investigated for NT2 cells by flow cytometry. Unsynchronised cells (FIG. 4E) were exposed to 20 μM aloisine A for 40 h (FIG. 4F).
The effects of aloisine A on NT2 cells synchronized either in G0/G1 by serum deprivation or in G2/M by nocodazole treatment was also investigated. The results are given on FIG. 4: the cell cycle phase distribution was analysed by flow cytometry following propidium iodide staining. (A, B, C). NT2 cells were synchronized by serum deprivation for […] (A), then cultured for 40 h in fresh medium without (B) or with 20 μM aloisine A (C). (D, E, F). NT2 cells were synchronized by nocodazole treatment ([…]) for 24 h (D), then cultured for 40 h in fresh medium without (E) or with 20 μM aloisine A (F).
On the technique in general: In flow cytometry, cells or beads pass a laser one at a time.

The mark [15] stands for this setting: 15 μM ATP, Table 1, read-out: IC50 GSK-3.

Read-outs that look alike come from different tables or passages of the source. Some results are limits rather than exact numbers.

We go through 13 compounds from patent US8106050B2, “Derivatives of pyrrolo-pyrazines having a kinase inhibitory activity and their biological applications” (Centre National de la Recherche Scientifique (C.N.R.S.), priority 2002, dated 2012).

Chain of CDK5/p25 (Q00535 whole entry, species assumed, the tested form may be a part): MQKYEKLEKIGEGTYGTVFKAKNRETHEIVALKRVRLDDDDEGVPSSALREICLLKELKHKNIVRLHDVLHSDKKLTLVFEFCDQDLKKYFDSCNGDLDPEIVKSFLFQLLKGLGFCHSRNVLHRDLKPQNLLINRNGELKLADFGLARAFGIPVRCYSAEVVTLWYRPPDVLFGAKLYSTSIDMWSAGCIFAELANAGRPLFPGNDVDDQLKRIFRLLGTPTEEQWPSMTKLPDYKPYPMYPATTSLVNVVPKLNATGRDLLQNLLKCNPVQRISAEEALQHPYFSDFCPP
Chain of CDK5/p25 (Q15078 99-307 partner limits assumed, species assumed): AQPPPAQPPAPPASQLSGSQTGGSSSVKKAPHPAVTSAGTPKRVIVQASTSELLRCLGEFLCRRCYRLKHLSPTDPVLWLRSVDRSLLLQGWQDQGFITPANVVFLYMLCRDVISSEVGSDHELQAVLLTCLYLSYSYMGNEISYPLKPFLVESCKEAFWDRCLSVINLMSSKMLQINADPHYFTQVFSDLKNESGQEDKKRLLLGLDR
Chain of Insulin receptor tyrosine kinase (P06213 28-1382): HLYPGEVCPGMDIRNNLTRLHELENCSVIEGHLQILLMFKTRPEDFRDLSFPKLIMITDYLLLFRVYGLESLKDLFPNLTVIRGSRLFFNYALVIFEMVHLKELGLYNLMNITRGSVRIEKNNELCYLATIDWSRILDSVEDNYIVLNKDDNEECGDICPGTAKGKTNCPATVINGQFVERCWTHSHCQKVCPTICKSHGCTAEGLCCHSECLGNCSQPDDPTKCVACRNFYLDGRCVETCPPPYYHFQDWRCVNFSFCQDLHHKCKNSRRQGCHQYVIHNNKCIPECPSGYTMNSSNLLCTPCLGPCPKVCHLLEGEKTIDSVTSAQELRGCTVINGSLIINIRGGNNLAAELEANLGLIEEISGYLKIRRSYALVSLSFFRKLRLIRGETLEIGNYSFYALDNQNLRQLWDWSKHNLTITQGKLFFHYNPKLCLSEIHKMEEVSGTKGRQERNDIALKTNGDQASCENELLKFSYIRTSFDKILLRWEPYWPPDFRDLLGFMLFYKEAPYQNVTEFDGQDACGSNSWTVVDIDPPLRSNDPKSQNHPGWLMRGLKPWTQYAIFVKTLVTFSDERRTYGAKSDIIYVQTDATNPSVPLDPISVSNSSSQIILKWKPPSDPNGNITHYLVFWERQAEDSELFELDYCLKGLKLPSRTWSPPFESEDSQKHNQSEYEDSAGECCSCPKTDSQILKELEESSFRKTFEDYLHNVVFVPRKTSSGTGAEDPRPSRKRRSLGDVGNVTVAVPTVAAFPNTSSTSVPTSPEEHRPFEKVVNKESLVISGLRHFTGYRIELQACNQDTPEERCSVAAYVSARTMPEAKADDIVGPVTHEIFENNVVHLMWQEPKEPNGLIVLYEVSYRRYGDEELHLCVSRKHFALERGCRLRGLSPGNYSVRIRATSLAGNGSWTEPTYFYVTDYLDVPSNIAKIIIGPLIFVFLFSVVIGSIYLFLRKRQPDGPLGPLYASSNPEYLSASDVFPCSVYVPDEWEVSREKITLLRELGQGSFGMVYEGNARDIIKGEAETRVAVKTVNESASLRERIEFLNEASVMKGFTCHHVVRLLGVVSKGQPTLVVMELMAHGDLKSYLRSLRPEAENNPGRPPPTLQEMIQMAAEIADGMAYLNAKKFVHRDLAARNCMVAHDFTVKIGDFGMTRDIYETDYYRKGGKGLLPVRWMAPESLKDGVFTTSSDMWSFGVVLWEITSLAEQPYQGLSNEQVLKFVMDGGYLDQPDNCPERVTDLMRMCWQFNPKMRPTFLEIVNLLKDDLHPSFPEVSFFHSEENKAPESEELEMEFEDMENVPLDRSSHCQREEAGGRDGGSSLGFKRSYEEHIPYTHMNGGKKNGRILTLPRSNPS
T2 sequence (P24723 whole entry): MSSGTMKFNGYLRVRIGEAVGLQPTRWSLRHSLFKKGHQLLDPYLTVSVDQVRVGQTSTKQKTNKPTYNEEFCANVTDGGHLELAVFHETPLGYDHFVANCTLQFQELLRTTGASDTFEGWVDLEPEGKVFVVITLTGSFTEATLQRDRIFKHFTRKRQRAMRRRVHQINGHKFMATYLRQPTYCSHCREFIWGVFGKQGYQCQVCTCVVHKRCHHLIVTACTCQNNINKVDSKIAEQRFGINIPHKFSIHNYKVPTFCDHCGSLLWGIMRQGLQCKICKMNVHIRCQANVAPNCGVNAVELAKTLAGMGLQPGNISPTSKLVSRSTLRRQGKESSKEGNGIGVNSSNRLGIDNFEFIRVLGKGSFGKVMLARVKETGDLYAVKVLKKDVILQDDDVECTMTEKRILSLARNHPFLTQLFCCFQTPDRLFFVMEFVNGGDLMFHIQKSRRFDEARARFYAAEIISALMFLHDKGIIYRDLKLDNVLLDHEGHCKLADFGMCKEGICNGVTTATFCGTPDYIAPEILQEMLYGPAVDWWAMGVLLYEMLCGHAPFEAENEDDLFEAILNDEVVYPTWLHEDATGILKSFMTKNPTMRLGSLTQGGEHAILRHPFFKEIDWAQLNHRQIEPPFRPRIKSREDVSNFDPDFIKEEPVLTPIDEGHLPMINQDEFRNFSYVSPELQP
T1 sequence (P27361 whole entry, species assumed): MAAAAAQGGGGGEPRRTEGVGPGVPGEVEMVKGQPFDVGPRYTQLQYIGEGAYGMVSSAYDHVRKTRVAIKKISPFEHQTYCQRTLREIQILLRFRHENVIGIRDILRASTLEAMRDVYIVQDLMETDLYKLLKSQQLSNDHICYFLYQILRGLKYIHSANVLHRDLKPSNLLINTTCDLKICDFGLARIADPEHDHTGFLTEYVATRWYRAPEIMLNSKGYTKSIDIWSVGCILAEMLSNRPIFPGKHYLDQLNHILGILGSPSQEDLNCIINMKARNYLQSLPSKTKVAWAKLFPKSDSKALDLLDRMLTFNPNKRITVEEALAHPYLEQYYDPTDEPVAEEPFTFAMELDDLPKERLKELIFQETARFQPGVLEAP
T4 sequence (P11802 whole entry, species assumed): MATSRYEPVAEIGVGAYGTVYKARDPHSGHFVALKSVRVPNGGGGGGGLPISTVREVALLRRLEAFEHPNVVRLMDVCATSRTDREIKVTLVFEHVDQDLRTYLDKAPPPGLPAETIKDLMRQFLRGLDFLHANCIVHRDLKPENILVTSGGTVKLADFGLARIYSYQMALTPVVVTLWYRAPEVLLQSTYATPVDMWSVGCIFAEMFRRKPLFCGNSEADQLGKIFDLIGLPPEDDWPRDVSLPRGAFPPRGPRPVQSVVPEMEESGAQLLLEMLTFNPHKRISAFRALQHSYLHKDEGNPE
T4 sequence (P24385 whole entry partner, species assumed): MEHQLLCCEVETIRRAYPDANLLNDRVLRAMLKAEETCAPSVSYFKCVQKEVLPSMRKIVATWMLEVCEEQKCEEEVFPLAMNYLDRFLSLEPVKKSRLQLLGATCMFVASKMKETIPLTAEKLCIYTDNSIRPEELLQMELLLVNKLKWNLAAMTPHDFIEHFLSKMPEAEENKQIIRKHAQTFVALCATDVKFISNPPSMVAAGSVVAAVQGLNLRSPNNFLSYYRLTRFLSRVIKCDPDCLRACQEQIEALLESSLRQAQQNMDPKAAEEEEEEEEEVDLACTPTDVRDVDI
T3 sequence (P28482 whole entry, species assumed): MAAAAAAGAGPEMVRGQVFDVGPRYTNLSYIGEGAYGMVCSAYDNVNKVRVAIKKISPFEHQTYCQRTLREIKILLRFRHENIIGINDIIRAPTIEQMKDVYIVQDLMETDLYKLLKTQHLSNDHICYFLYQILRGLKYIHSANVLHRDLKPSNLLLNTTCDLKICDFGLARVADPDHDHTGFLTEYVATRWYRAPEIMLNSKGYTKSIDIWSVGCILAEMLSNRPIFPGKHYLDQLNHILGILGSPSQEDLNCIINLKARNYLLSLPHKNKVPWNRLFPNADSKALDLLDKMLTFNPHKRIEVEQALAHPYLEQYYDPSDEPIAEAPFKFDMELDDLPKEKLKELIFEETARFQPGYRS

On to `c1csc(-c2cc3nccnc3[nH]2)c1` [2 (RP6), 6-(2-Thienyl)[5H]pyrrolo[2,3-b]pyrazine], for which the melting point (commonly the temperature of the solid-liquid transition) turned out to be 260.3 °C. For the same compound, in data set [1], the IC50 is 7 µM. In [2], this compound gave an IC50 of 2 µM. Also, in data set [3] (setting [15]), the IC50 worked out at 1.2 µM.

Regarding `c1cnc2[nH]c(-c3ccsc3)cc2n1` [3 (RP128)], the melting point was 230 °C (dec.). This compound also showed an IC50 in data set [1] of 2.3 µM. In data set [2], this compound gave an IC50 of 1 µM. Further, the IC50 in data set [3] (setting [15]) came out at 0.8 µM.

`c1ccc(-c2cc3nccnc3[nH]2)nc1` [4 (RP13), 6-(2-Pyridyl)[5H]pyrrolo[2,3-b]pyrazine] had a melting point of 233.1 °C. Also, the IC50 in data set [1] is 21 µM. Further, the IC50 in [2] was 53 µM. Moreover, the IC50 in [3] (setting [15]) turned out to be 15 µM.

As to `c1ccc(-c2cc3nccnc3[nH]2)cc1` [5 (RP7), 6-Phenyl[5H]pyrrolo[2,3-b]pyrazine], the melting point was found to be 216 °C. Besides, the IC50 in [1] stood at 5 µM. Also, the IC50 in data set [2] is 4 µM. In addition, the IC50 in [3] (setting [15]) turned out to be 2.3 µM.

`Br.Oc1ccccc1-c1cc2nccnc2[nH]1` [11 (RP109), 6-(2-Hydroxyphenyl)[5H]pyrrolo[2,3-b]pyrazine hydrobromide]: the melting point is 250 °C (dec.). This compound showed an IC50 in data set [1] of 2.5 µM. In data set [2], the IC50 was 3 µM. The IC50 in [3] (setting [15]) was 6.5 µM.

In the case of `COc1ccc(-c2cc3nccnc3[nH]2)cc1` [14 (RP11), 6-(4-Methoxyphenyl)[5H]pyrrolo[2,3-b]pyrazine], the melting point was 256.1 °C (dec.). Besides, the IC50 in data set [1] stood at 2 µM. In data set [2], this compound gave an IC50 of 4 µM. Further, the IC50 in data set [3] (setting [15]) turned out to be 1.1 µM.

`Clc1cc(Cl)cc(-c2cc3nccnc3[nH]2)c1` [20 (RP15), 6-(3,5-Dichlorophenyl)[5H]pyrrolo[2,3-b]pyrazine]: the melting point was 252 °C (dec.). The IC50 in [1] was > 100 µM. The IC50 in [2] was > 100 µM. Moreover, the IC50 in [3] (setting [15]) was > 100 µM.

For the compound `FC(F)(F)c1ccc(-c2cc3nccnc3[nH]2)cc1` [22 (RP8), 6-(4-Trifluoromethylphenyl)[5H]pyrrolo[2,3-b]pyrazine], the melting point was 238 °C (dec.). The same compound showed an IC50 in [1] of 6 µM. Moreover, in [2], the IC50 is > 100 µM. Also, in data set [3] (setting [15]), the IC50 came to 7.2 µM.

`CN(C)c1ccc(-c2cc3nccnc3[nH]2)cc1` [26 (RP129), 6-(4-Dimethylaminophenyl)[5H]pyrrolo[2,3-b]pyrazine]: the melting point is 271 °C (dec.). Moreover, the IC50 in [1] stood at 20 µM. Also, the IC50 in data set [2] was > 100 µM. For the same compound, the IC50 in [3] (setting [15]) is 12 µM.

Take `CCCCc1c(-c2ccc(O)cc2)[nH]c2nccnc12` [39 (RP107)]: the IC50 was 60 µM in data set [4]; 18 µM in [5]; 3.3 to 10 µM in data set [6]; > 100 µM in data set [7]; > 100 µM in data set [8]; 22 µM in [9]. Besides, the IC50 in [11] is > 100 µM; in [12], > 100 µM; in data set [3] (text summary of selectivity, read-out: IC50 GSK-3α/β), […]; in data set [13], > 100 µM. The “Mechanism of inhibition versus ATP, CDK1/cyclin B” value in [1] (ATP 0.1 to […], histone H1 0.7 mg/ml, double reciprocal plots) is listed as “competitive inhibitor for ATP”. Moreover, the Exponential cell growth result in [10] was “reversible inhibition of exponential cell growth”. For the same compound, the “Cell cycle distribution, unsynchronised cells” value in data set [14] (NT2 cells, 20 μM for 40 h) is “accumulation in G2/M phase”. The “Cell cycle distribution after G2/M synchronisation by nocodazole” value in [14] (NT2 cells, 20 μM for 40 h after nocodazole withdrawal) is “remained in G2/M”. Further, the “Cell cycle distribution after G0/G1 synchronisation by serum deprivation” value in data set [14] (NT2 cells, serum-enriched medium with 20 μM for 40 h) is “remained essentially in G0/G1”. Besides, in [14] (unsynchronised NT2 cells, 20 μM for 40 h), the Signs of apoptosis result is listed as “No signs of apoptosis were detectable”.

In the case of `CCCCc1c(-c2ccc(Cl)cc2)[nH]c2nccnc12` [40 (RP108), 7-n-Butyl-6-(4-chlorophenyl)[5H]pyrrolo[2,3-b]pyrazine], the melting point was found to be 200 °C. In [1], the IC50 is 0.2 µM. The IC50 in data set [2] was > 100 µM. In addition, the IC50 in data set [3] (setting [15]) came to 5.9 µM.

The compound `CCCCCCCc1c(-c2ccc(OC)cc2)[nH]c2nccnc12` [41 (RP111), 7-n-Heptyl-6-(4-methoxyphenyl)[5H]pyrrolo[2,3-b]pyrazine] showed a melting point of 132.5 °C. In addition, the IC50 in [1] came to 7 µM. Moreover, in data set [2], the IC50 was > 100 µM. Besides, in [3] (setting [15]), the IC50 was > 10 µM.

Take `c1ccc(Cc2c(-c3ccccc3)[nH]c3nccnc23)cc1` [44 (RP92), 7-Benzyl-6-phenyl[5H]pyrrolo[2,3-b]pyrazine]: the melting point amounted to 209.8 °C. The IC50 in [1] was determined as 2 µM. Further, the IC50 in [2] was > 100 µM. Also, in data set [3] (setting [15]), the IC50 turned out to be 1 µM.
